How the values were obtained:
human SCD1 = human SCD1 (Homo sapiens (Human), UniProt O00767); experiment: Yeast growth assay, strain expressing human SCD1 as the sole desaturase (reduced growth as surrogate for SCD inhibition); format: cell-based; conditions: yeast with OLE1 deleted expressing human SCD1 from a plasmid; growth read as OD600 after 40 h at 30° C.; top drug concentration 33.3 μM
How it was run: (§1)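 Human SCD1 or SCD5 expressed from a plasmid in OLE1-deleted yeast as the sole desaturase. Cells washed free of Tween and fatty acids, grown with compound in SD-Ura glucose medium 40 h at 30 °C; growth measured as OD600, reduced growth taken as SCD inhibition.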

human SCD5 = human SCD5 (Homo sapiens (Human), UniProt Q86SK9); experiment: Yeast growth assay, strain expressing human SCD5 as the sole desaturase (reduced growth as surrogate for SCD inhibition); format: cell-based; conditions: yeast with OLE1 deleted expressing human SCD5 from a plasmid; growth read as OD600 after 40 h at 30° C.; top drug concentration 33.3 μM
How it was run: as §1

human SCD5, sequence (Q86SK9 whole entry): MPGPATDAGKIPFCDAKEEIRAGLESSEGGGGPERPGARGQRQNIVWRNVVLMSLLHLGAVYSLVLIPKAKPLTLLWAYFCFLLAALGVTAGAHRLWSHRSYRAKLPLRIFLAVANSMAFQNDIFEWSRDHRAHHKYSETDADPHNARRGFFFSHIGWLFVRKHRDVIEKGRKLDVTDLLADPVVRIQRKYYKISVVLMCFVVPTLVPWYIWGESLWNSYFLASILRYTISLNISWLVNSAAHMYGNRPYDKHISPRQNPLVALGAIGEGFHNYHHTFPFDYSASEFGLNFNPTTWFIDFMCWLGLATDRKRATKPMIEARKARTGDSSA
human SCD1, sequence (O00767 whole entry): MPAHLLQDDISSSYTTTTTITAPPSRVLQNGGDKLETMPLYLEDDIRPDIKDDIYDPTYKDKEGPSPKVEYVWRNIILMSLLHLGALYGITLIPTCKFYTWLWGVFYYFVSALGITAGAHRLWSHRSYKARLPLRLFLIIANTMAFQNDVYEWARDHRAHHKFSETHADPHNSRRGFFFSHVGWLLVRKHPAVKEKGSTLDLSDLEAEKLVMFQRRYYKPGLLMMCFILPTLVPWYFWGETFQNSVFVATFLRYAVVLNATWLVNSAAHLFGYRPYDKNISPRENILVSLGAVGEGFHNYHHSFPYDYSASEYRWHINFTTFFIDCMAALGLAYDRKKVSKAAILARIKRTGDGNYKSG

| Structure (SMILES) | IC50 (human SCD1) | IC50 (human SCD5) |
| --- | --- | --- |
| O=C(c1cc(-c2ccc3c(c2)OCO3)on1)N1CCCC12CC2 [Compound 371] | 30.4 µM | 4.92 µM |
| O=C(c1cc(-c2ccc3c(c2)OCO3)on1)N1CCCC1c1ccncc1 (centres unmarked) [Compound 363] | > 45 µM | > 45 µM |
| COc1ccccc1-c1cc(C(=O)Nc2cnn(Cc3ccccc3)c2)no1 [Compound 136] | > 45 µM | > 45 µM |
| Cc1nn(C)c(C)c1NC(=O)c1cc(-c2ccco2)on1 [Compound 1] | > 45 µM | > 45 µM |
| O=C(c1cc(-c2ccc3c(c2)OCO3)on1)N1CCCC1c1ncccc1F (centres unmarked) [Compound 457] | > 45 µM | > 45 µM |
| O=C(c1cc(-c2ccccc2)on1)N1CC(Oc2ccccc2)C1 [Compound 213] | 0.49 µM | > 45 µM |
| O=C(c1cc(-c2ccc3c(c2)OCO3)on1)N1CCC1c1ccccc1Cl (centres unmarked) [Compound 219] | > 45 µM | > 45 µM |
| O=C(Nc1cnn(Cc2ccc(C(F)(F)F)cc2)c1)c1cc(-c2ccco2)on1 [Compound 16] | > 45 µM | > 45 µM |
| Cc1nn(C)c2cc(-c3conc3CN3C(=O)OCC3c3ccccc3)ccc12 (centres unmarked) [Compound 464] | > 45 µM | > 45 µM |
| O=C(c1cc(-c2ccc3c(c2)OCO3)on1)N1CC(Cc2ccccc2)C1 [Compound 216, [5-(1,3-benzodioxol-5-yl)isoxazol-3-yl]-(3-benzylazetidin-1-yl)methanone] | > 45 µM | 1.13 µM |
| CC1(c2ccccc2)CCN(C(=O)c2cc(-c3ccc4c(c3)OCO4)on2)CC1 [Compound 290, 1-[5-(2H-1,3-benzodioxol-5-yl)-1,2-oxazole-3-carbonyl]-4-methyl-4-phenylpiperidine] | > 45 µM | 2.94 µM |
| COc1cc(F)ccc1C1CCCN1C(=O)c1cc(-c2ccc3c(c2)OCO3)on1 (centres unmarked) [Compound 430] | > 45 µM | 30 µM |
| CN1CCC(C2CCCN2C(=O)c2cc(-c3ccc4c(c3)OCO4)on2)CC1 (centres unmarked) [Compound 424] | > 45 µM | > 45 µM |
| O=C(c1cc(-c2ccc3c(c2)OCO3)on1)N1CCCc2ccccc21 [Compound 261] | > 45 µM | > 45 µM |
| O=C(Nc1cnn(Cc2ccccc2)c1)c1cc(-c2cccc3cn(C4COC4)nc23)on1 [Compound 95] | > 45 µM | > 45 µM |
| CC(C)c1cc(C(=O)Nc2cnn(CC34CCC(CC3)CC4)c2)no1 [Compound 167] | > 45 µM | > 45 µM |
| N#Cc1cccc(Cn2cc(NC(=O)c3cc(-c4ccccc4)on3)cn2)c1 [Compound 132] | > 45 µM | > 45 µM |
| O=C(c1cc(-c2ccc3c(c2)OCO3)on1)N1CC(Nc2ccccc2)C1 [Compound 221] | > 45 µM | > 45 µM |
| COc1ccncc1Cn1cc(NC(=O)c2cc(-c3ccccc3F)on2)cn1 [Compound 173] | > 45 µM | > 45 µM |
| O=C(Nc1cnn(Cc2ccc(F)cc2)c1)c1cc(-c2ccccc2)on1 [Compound 112] | > 45 µM | > 45 µM |

| Structure (SMILES) | IC50 (human SCD1) | IC50 (human SCD5) |
| --- | --- | --- |
| O=C(Nc1cnn(CCCC(F)(F)F)c1)c1cc(-c2ccco2)on1 [Compound 34, 5-(2-furyl)-N-[1-(4,4,4-trifluorobutyl)pyrazol-4-yl]isoxazole-3-carboxamide] | > 45 µM | 6.42 µM |
| O=C(c1cc(-c2ccc3c(c2)OCO3)on1)N1CCC(c2ccccc2)CC1 [Compound 275, [5-(1,3-benzodioxol-5-yl)isoxazol-3-yl]-(4-phenyl-1-piperidyl)methanone] | > 45 µM | 1.13 µM |
| O=C(Nc1cnn(Cc2ccccc2)c1)c1cc(-c2ccns2)on1 [Compound 126] | 6.97 µM | > 45 µM |
| O=C(c1cc(-c2ccc3c(c2)OCO3)on1)N1CCCC1c1ccccn1 (centres unmarked) [Compound 361] | > 45 µM | > 45 µM |
| O=C(Nc1cnn(Cc2cccc(F)c2)c1)c1cc(-c2ccccn2)on1 [Compound 54] | 2.04 µM | > 45 µM |
| O=C(c1cc(-c2ccncc2)on1)N1CCC(c2ccccc2)CC1 [Compound 313, (4-phenylpiperidin-1-yl)(5-(pyridin-4-yl)isoxazol-3-yl)methanone, trifluoroacetic acid] | 0.41 µM | 1.54 µM |
| Cc1ncc(-c2cc(C(=O)Nc3cnn(Cc4cccc(F)c4)c3)no2)o1 [Compound 67, N-(1-(3-fluorobenzyl)-1H-pyrazol-4-yl)-5-(2-methyloxazol-5-yl)isoxazole-3-carboxamide] | 0.99 µM | 7.89 µM |
| O=C(c1cc(-c2ccc3c(c2)OCO3)on1)N1CCC1c1ccc(F)cc1 (centres unmarked) [Compound 223, [5-(1,3-benzodioxol-5-yl)isoxazol-3-yl]-[2-(4-fluorophenyl)azetidin-1-yl]methanone] | > 45 µM | 3.26 µM |
| COc1ccc(C2CCCN2C(=O)c2cc(-c3ccc(OC)c(F)c3)on2)cc1 (centres unmarked) [Compound 382] | 43.5 µM | > 45 µM |
| O=C(c1cc(-c2ccccn2)on1)N(Cc1ccc(F)c(F)c1)c1cnn(Cc2ccc(F)c(F)c2)c1 [Compound 62, N-(3,4-difluorobenzyl)-N-(1-(3,4-difluorobenzyl)-1H-pyrazol-4-yl)-5-(pyridin-2-yl)isoxazole-3-carboxamide] | > 45 µM | 33.1 µM |
| O=C(Nc1cnn(Cc2ccccc2)c1)c1cc(-c2cncs2)no1 [Compound 131] | > 45 µM | > 45 µM |
| N#Cc1ccccc1C1CCCN1C(=O)c1cc(-c2ccc3c(c2)OCO3)on1 (centres unmarked) [Compound 398] | > 45 µM | > 45 µM |
| O=C(Nc1cnn(Cc2ccccc2)c1)c1cc(-c2ccccc2)no1 [Compound 123] | > 45 µM | > 45 µM |
| O=C(c1cc(-c2ccncc2)on1)N1CC(c2ccccc2)C1 [Compound 229, (3-phenylazetidin-1-yl)(5-(pyridin-4-yl)isoxazol-3-yl)methanone, trifluoroacetic acid] | 0.66 µM | 7.17 µM |
| CC(C)(C)OC(=O)Nc1cc(C(=O)Nc2cnn(Cc3ccccc3)c2)no1 [Compound 181] | 5.8 µM | > 45 µM |
| O=C(Nc1cnn(Cc2ccccc2)c1)c1cc(-c2ccc(F)cc2F)on1 [Compound 157] | > 45 µM | > 45 µM |
| O=C(Nc1cnn(CC2CCOCC2)c1)c1cc(-c2ccco2)on1 [Compound 31] | > 45 µM | > 45 µM |
| O=C(c1cc(-c2ccccc2)on1)N1CCN(c2ccc(F)cc2)CC1 [Compound 283] | > 45 µM | > 45 µM |
| O=C(c1cc(-c2ccc3c(c2)OCO3)on1)N1C[C@@H](O)C[C@H]1c1ccccc1 [Compound 421] | > 45 µM | > 45 µM |
| CC(C)c1cc(C(=O)N2CCC(c3ccccc3)C2)no1 (centres unmarked) [Compound 349] | > 45 µM | > 45 µM |

| Structure (SMILES) | IC50 (human SCD1) | IC50 (human SCD5) |
| --- | --- | --- |
| O=C(c1cc(-c2ccc3c(c2)OCO3)on1)N1CC(c2cccc(F)c2)C1 [Compound 239, (5-(benzo[d][1,3]dioxol-5-yl)isoxazol-3-yl)(3-(3-fluorophenyl)azetidin-1-yl)methanone] | 0.866 µM | 1.92 µM |
| COc1ccc(C2CCCN2C(=O)c2cc(-c3ccc4ncoc4c3)on2)cc1 (centres unmarked) [Compound 401] | > 45 µM | > 45 µM |
| Cc1nn(Cc2ccccc2)cc1NC(=O)c1cc(-c2ccccc2)on1 [Compound 66] | 1.83 µM | > 45 µM |
| Cn1nc(Cc2ccc(Cl)c(Cl)c2)cc1NC(=O)c1cc(-c2ccco2)on1 [Compound 27] | > 45 µM | > 45 µM |
| O=C(c1cc(-c2ccc3c(c2)OCO3)on1)N1CC2(C1)CN(c1ccccc1)C2 [Compound 222] | > 45 µM | > 45 µM |
| O=C(NC1CCN(Cc2ccccc2)C1)c1cc(-c2ccco2)on1 (centres unmarked) [Compound 337] | > 45 µM | > 45 µM |
| O=C(Nc1cnn(Cc2ccccc2)c1)c1cc(-c2cccc3c2cnn3C2COC2)on1 [Compound 97] | > 45 µM | > 45 µM |
| O=C(c1cc(-c2ccc3c(c2)OCO3)on1)N1COCC1c1ccccc1 (centres unmarked) [Compound 406] | > 45 µM | > 45 µM |
| COc1ccc(Cn2cc(NC(=O)c3cc(-c4ccccc4)on3)cn2)cc1 [Compound 109] | > 45 µM | > 45 µM |
| CCOc1ccc(-c2cc(C(=O)N3CCC[C@H]3c3ccccc3)no2)cc1F [Compound 443] | > 45 µM | > 45 µM |
| Cn1ncc2cccc(C3CCCN3C(=O)c3cc(-c4ccc5c(c4)OCO5)on3)c21 (centres unmarked) [Compound 425] | > 45 µM | > 45 µM |
| N#Cc1ccccc1-c1cc(C(=O)N2CCC(c3ccccc3)CC2)no1 [Compound 326, 2-(3-(4-phenylpiperidine-1-carbonyl)isoxazol-5-yl)benzonitrile] | > 45 µM | 5.7 µM |
| O=C(c1cc(-c2ccccc2)on1)N1CCC2(CCNC2)C1 (centres unmarked) [Compound 340] | > 45 µM | > 45 µM |
| O=C(c1cc(-c2ccco2)on1)N1CC(c2ccccc2)C1 [Compound 207, [5-(2-furyl)isoxazol-3-yl]-(3-phenylazetidin-1-yl)methanone] | 2.56 µM | 1.14 µM |
| CN(C)CCC(c1ccccc1)n1cc(NC(=O)c2cc(-c3ccccc3)on2)cn1 (centres unmarked) [Compound 65] | > 45 µM | > 45 µM |
| N#Cc1ccc(-c2cc(C(=O)Nc3cnn(Cc4cc(F)ccc4C(F)(F)F)c3)no2)nc1 [Compound 99] | > 45 µM | > 45 µM |
| CC(C)c1cc(C(=O)N2CC(c3ccccc3)C2)no1 [Compound 250] | > 45 µM | > 45 µM |
| O=C(c1cc(-c2ccco2)on1)N1CC(Cc2ccccc2)C1 [Compound 205, (3-benzylazetidin-1-yl)-[5-(2-furyl)isoxazol-3-yl]methanone] | 0.23 µM | 0.63 µM |

— patent publication US10919885B2, “Compounds and uses thereof” (Yumanity Therapeutics, Inc., priority 2018, dated 2021)
